Measurements from PubChem BioAssay AID1963850 (Molecular Pharmacology Branch, DTP, NCI, 2024).
Several values for one entry are separate records, joined by “and”; a condition that tells them apart may be missing. Equal values may be shown once.

System: 192522-019-R-J2-PDC complex tumor spheroid viability
Assay: Anticancer human tumor 192522-019-R-J2-PDC patient-derived colon adenocarcinoma cell line growth inhibition [POLQ]
Details: for viability, T/C: stronger effect = lower value
Method: Multicellular complex tumor spheroid response to Polymerase (POL) inhibitors (novobiocin, ART-558, RP6685) in combination with a variety of drugs and investigational agents in selected tumor cell lines
The POL inhibitors (novobiocin, ART-558, and RP6685) were evaluated both individually and in combination with standard of care and investigational anticancer small molecules within a complex spheroid model of solid tumors. . Complex spheroids include a stromal component modeled by human endothelial cells (HUVEC) and fibroblasts modeled by human mesenchymal stem cells (MSCs). The concentration ranges selected for each drug and investigational agent were based upon clinically achievable concentrations if the clinical Cmax of the agent was known.
Compounds. The drugs and investigational agents: novobiocin (NSC847541), ART-558 (NSC835418), RP-6685 (NSC848927), peposertib (NSC802822), ceralasertib (NSC780249), elimusertib (NSC800525), camonsertib (NSC841442), AZD-1390 (NSC803789), olaparib (NSC753686), talazoparib (NSC767125), rucaparib (NSC756644), sotorasib (NSC818433), MRTX-1133 (NSC836407), SN-38 (NSC673596), topotecan (NSC609699), epotoside (NSC141540), doxorubicin (NSC123127), gemcitabine (NSC613327), 5-fluorouracil (NSC19893), paclitaxel (NSC125973), vemurafenib (NSC761431), MSA-2 (NSC828583), SN-011 (NSC837082), adavosertib (NSC754352), prexasertib (NSC758257), carboplatin (NSC241240) and oxaliplatin (NSC266046), were obtained from the National Cancer Institute (NCI) Developmental Therapeutics Program Chemical Repository (21). The FDA-approved anticancer drug set is available from the Developmental Therapeutics Program at https://dtp.cancer.gov/organization/dscb/obtaining/. […] The stock solutions were prepared in dimethyl sulfoxide (DMSO, Sigma-Aldrich, St. Louis, MO, cat. D2650), except for the platinum compounds which were prepared in saline (Quality Biological, Gaithersburg, MD, cat. 114-055-101), at 800-fold the tested concentration and stored at -70 degrees C prior to their use. All drugs and investigational agents were tested over a range starting from a high concentration at or near the clinical Cmax and decreasing in half-log increments. If the clinical Cmax for an agent had not been determined, the highest concentration tested was 10 microM, except for SN-38, which was tested at a high concentration of 1 microM.
Cell Culture. All cells were maintained in an incubator at 37 degrees C and 5% CO2 with 95% humidity. The PDC lines were cultured according to standard operating procedures established by the NCI PDMR (https://pdmr.cancer.gov). Table 3 of the manuscript, lists the cell lines along with the number of the three cell types plated to form the mct-spheroids and media for tumor cell growth. After thawing, all PDC lines, except 997537-175-T-J1-PDC and 415267-285-R-J2-PDC, were cultured in Matrigel-coated flasks prepared with a working solution of 1X Ham's F-12 nutrient mix, without supplementation (Thermo Fisher Scientific, cat. 11765054), 100 U/mL penicillin-streptomycin (Thermo Fisher Scientific, cat. 15140122), and 2.5% Matrigel (Corning Inc., Corning, NY, cat. 354248) for the first three passages. The two PDC lines 997537-175-T-J1-PDC and 415267-285-R-J2-PDC were cultured on uncoated flasks. The 857933-349-R-J2-PDC line was cultured in 6C/Colon 1B media containing advanced DMEM/F-12 (Thermo Fisher Scientific, cat. 12634028), 10 mM HEPES (Thermo Fisher Scientific, cat. 15630080), 1X GlutaMAX supplement (Thermo Fisher Scientific, cat. 35050061), 0.1 mg/mL primocin (InvivoGen, San Diego, CA, cat. ant-pm-2), 10% defined fetal bovine serum, heat inactivated (HyClone Laboratories Inc., Logan, UT, cat. SH30070.03HI), 50% L-WRN conditioned media (ATCC, cat. CRL-3276), 1.25 mM N-Acetyl-L-cysteine (Sigma-Aldrich, cat. A9165), 10 mM nicotinamide (Sigma-Aldrich, cat. N0636), 1X B-27 supplement (Thermo Fisher Scientific, cat. 17504044), 1X N-2 supplement (Thermo Fisher Scientific, cat. […]

[1] = compound alone, run of 10/31/2023
[2] = compound alone, run of 11/06/2023
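Further: spheroids exposed to drugs for seven days before reading.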
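Wherever viability, T/C is given: 100% = DMSO vehicle control viability in luminescence.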

Compound | viability, T/C (compound 0.0316 µM) | viability, T/C (compound 0.1 µM) | viability, T/C (compound 0.316 µM) | viability, T/C (compound 1 µM) | viability, T/C (compound 3.16 µM) | viability, T/C (compound 10 µM) | IC50 (curve of compound) | IC50 [1] | viability, T/C (compound 0.00316 µM) | IC50 [2] | viability, T/C (compound 0.000316 µM) | viability, T/C (compound 0.001 µM) | viability, T/C (compound 0.01 µM)
CNCc1ccc(-c2[nH]c3cc(F)cc4c3c2CCNC4=O)cc1 | 104% and 103% and 93% | 98.4% and 101% and 86% | 104% and 102% and 109% | 107% and 120% and 102% | 100% and 108% and 105% | 96.8% and 103% and 92.1% | > 10 µM | – | – | – | – | – | –
COC1C(OC(N)=O)C(O)C(Oc2ccc3c(O)c(NC(=O)c4ccc(O)c(CC=C(C)C)c4)c(=O)oc3c2C)OC1(C)C (configuration not stated) | 108% [middle of 13 runs] | 106% [middle of 13 runs] | 106% [middle of 13 runs] | 103% [middle of 13 runs] | 101% [middle of 13 runs] | 106% [middle of 13 runs] | – | > 10 µM | – | – | – | – | –
COc1cc(C2c3cc4c(cc3C(OC3OC5COC(C)OC5C(O)C3O)C3COC(=O)C23)OCO4)cc(OC)c1O (configuration not stated) | 101% and 100% and 97.1% | 96.5% and 97% and 97.3% | – | 86.6% and 86% and 84.8% | 59.9% (2×) and 65.3% | 75.5% and 79.4% and 55.1% | > 10 µM | – | – | – | – | – | –
COc1cc2cc(C(=O)CCC(=O)O)sc2cc1OC | 103% and 106% and 111% | 102% and 92.6% and 99.8% | 90.1% and 107% and 96.3% | 96.8% and 99.9% and 102% | 115% and 103% and 100% | 100% and 98.1% and 91.6% | > 10 µM | – | – | – | – | – | –
COc1ccc([C@@H](O)c2cc(-c3ncnc4cc(N5CCOCC5)ccc34)c(F)cc2Cl)nn1 | 105% and 101% and 113% | 93.6% and 91.3% and 99.9% | 100% and 94.7% and 106% | 77.6% and 101% and 102% | 83% and 75.1% and 92.5% | 54.5% and 64.9% and 65.9% | > 10 µM | – | – | – | – | – | –
COc1cccc(OCCCN)c1-c1cc(Nc2cnc(C#N)cn2)n[nH]1 | 33% and 47.4% and 44% | 32.7% and 40.1% and 36.7% | 32.7% and 38.2% and 35.7% | 28.8% and 37.6% and 34.5% | – | – | 0.0153 µM and 0.0294 µM and 0.0264 µM | – | 96.6% and 99.2% and 101% | – | – | – | –
COc1cccc2c1C(=O)c1c(O)c3c(c(O)c1C2=O)CC(O)(C(=O)CO)CC3OC1CC(N)C(O)C(C)O1 (configuration not stated) | 103% and 101% and 100% | 82.1% and 80.8% and 80.6% | 72% and 89.1% and 66.9% | 89.1% and 74.3% and 83.1% | 69.1% and 72.3% and 65.9% | 59.9% and 62.4% and 48.1% | > 10 µM | – | – | – | – | – | –
Cc1cccc(N(C)C(=O)C2C(O)CCN2c2nc(C)cc(C(F)(F)F)c2C#N)c1 (configuration not stated) | 107% [middle of 13 runs] | 108% [middle of 13 runs] | 110% [middle of 13 runs] | 106% [middle of 13 runs] | 106% [middle of 13 runs] | 110% [middle of 13 runs] | – | > 10 µM | – | > 10 µM | – | – | –
Cn1ncnc1[C@H]1c2n[nH]c(=O)c3cc(F)cc(c23)N[C@@H]1c1ccc(F)cc1 | 103% and 104% and 98.2% | 91.1% and 96.3% and 85.5% | – | – | – | – | > 0.1 µM | – | 95.3% and 101% and 95.1% | – | 107% and 103% and 109% | 95.2% and 97.2% and 98.7% | 107% and 103% and 104%
Nc1ccc(C#CCN(C(=O)Cc2ncc(C(F)(F)F)cc2C(F)(F)F)c2ccc(F)cc2)nn1 | 104% [middle of 13 runs] | 106% [middle of 13 runs] | 106% [middle of 13 runs] | 105% [middle of 13 runs] | 105% [middle of 13 runs] | 107% [middle of 13 runs] | – | – | – | > 10 µM | – | – | –
Nc1ccn(C2OC(CO)C(O)C2(F)F)c(=O)n1 (configuration not stated) | 100% and 102% and 104% | 83.2% and 86.6% and 83.9% | 72.9% and 76.2% and 66.8% | 78.3% and 79.2% and 66% | 71.9% and 82% and 62.9% | 50.5% and 62.5% and 58.2% | > 10 µM | – | – | – | – | – | –
O=C(Nc1ccc(O)c(NS(=O)(=O)c2ccc(F)cc2)c1)c1ccc(-c2ccccc2)cc1 | 104% and 99.9% and 101% | 99.1% and 96.7% and 91.7% | 102% and 97.6% and 88.4% | 101% and 99.2% and 96% | 103% and 99.1% and 99.2% | 104% and 100% and 93.4% | > 10 µM | – | – | – | – | – | –
O=C(c1cc(Cc2n[nH]c(=O)c3ccccc23)ccc1F)N1CCN(C(=O)C2CC2)CC1 | 99.6% and 98.7% and 100% | 99% and 96.3% and 98.5% | 96.2% and 100% and 101% | 91.8% and 106% and 102% | 97.4% and 116% and 113% | 102% and 100% and 101% | > 10 µM | – | – | – | – | – | –
O=c1[nH]cc(F)c(=O)[nH]1 | 92.8% and 104% and 97.2% | 88.4% and 98% and 84.1% | 81.6% and 85.3% and 79.5% | 79.2% and 93.5% and 73.6% | 86.3% and 94.5% and 74.5% | 76.5% and 86% and 63.1% | > 10 µM | – | – | – | – | – | –
